In PubChem BioAssay (NCI):
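Here, GI50 denotes the concentration required for 50% inhibition of growth. The concentration for full growth arrest is given as TGI.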

Columns and labels:
Experiment in all cases: growth of human tumour cells (NCI), 384-well format
786-0 renal = tested on: 786-0 renal
A498 renal = tested on: A498 renal
A549 NSCLC = tested on: A549 NSCLC
ACHN renal = tested on: ACHN renal
BT-549 breast = tested on: BT-549 breast
CAKI-1 renal = tested on: CAKI-1 renal
COLO 205 colon = tested on: COLO 205 colon
DU-145 prostate = tested on: DU-145 prostate
EKVX NSCLC = tested on: EKVX NSCLC
HCC-2998 colon = tested on: HCC-2998 colon
HCT-116 colon = tested on: HCT-116 colon
HCT-15 colon = tested on: HCT-15 colon
HL-60(TB) leukemia = tested on: HL-60(TB) leukemia
HOP-62 NSCLC = tested on: HOP-62 NSCLC
HOP-92 NSCLC = tested on: HOP-92 NSCLC
HS 578T breast = tested on: HS 578T breast
HT29 colon = tested on: HT29 colon
IGROV1 ovarian = tested on: IGROV1 ovarian
K-562 leukemia = tested on: K-562 leukemia
KM12 colon = tested on: KM12 colon
LOX IMVI melanoma = tested on: LOX IMVI melanoma
M14 melanoma = tested on: M14 melanoma
MALME-3M melanoma = tested on: MALME-3M melanoma
MCF7 breast = tested on: MCF7 breast
MDA-MB-231 breast = tested on: MDA-MB-231 breast
MDA-MB-435 melanoma = tested on: MDA-MB-435 melanoma
MDA-MB-468 breast = tested on: MDA-MB-468 breast
MOLT-4 leukemia = tested on: MOLT-4 leukemia
NCI-H226 lung = tested on: NCI-H226 lung
NCI-H23 lung = tested on: NCI-H23 lung
NCI-H322M lung = tested on: NCI-H322M lung
NCI-H460 NSCLC = tested on: NCI-H460 NSCLC
NCI-H522 lung = tested on: NCI-H522 lung
NCI/ADR-RES ovarian = tested on: NCI/ADR-RES ovarian
OVCAR-3 ovarian = tested on: OVCAR-3 ovarian
OVCAR-4 ovarian = tested on: OVCAR-4 ovarian
OVCAR-8 ovarian = tested on: OVCAR-8 ovarian
PC-3 prostate = tested on: PC-3 prostate
RPMI-8226 leukemia = tested on: RPMI-8226 leukemia
RXF 393 renal = tested on: RXF 393 renal
SF-268 CNS = tested on: SF-268 CNS
SF-295 CNS = tested on: SF-295 CNS
SF-539 CNS = tested on: SF-539 CNS
SK-MEL-28 melanoma = tested on: SK-MEL-28 melanoma
SK-MEL-5 melanoma = tested on: SK-MEL-5 melanoma
SK-OV-3 ovarian = tested on: SK-OV-3 ovarian
SN12C renal = tested on: SN12C renal
SNB-19 CNS = tested on: SNB-19 CNS
SNB-75 CNS = tested on: SNB-75 CNS
SR leukemia = tested on: SR leukemia
SW-620 colon = tested on: SW-620 colon
T-47D breast = tested on: T-47D breast
TK-10 renal = tested on: TK-10 renal
U251 glioblastoma = tested on: U251 glioblastoma
UACC-257 melanoma = tested on: UACC-257 melanoma
UACC-62 melanoma = tested on: UACC-62 melanoma
UO-31 renal = tested on: UO-31 renal

## O=C(C1CC1)N1CC[C@@H](Cc2n[nH]c(=O)n2-c2ccc(-c3ccc4occc4c3)cc2)C1
786-0 renal
  GI50: 25.6 µM
  TGI: > 100 µM
A498 renal
  GI50: 29.4 µM
  TGI: > 100 µM
A549 NSCLC
  GI50: 23.4 µM
  TGI: > 100 µM
ACHN renal
  GI50: 24.6 µM
  TGI: > 100 µM
BT-549 breast
  GI50: 13.3 µM
  TGI: 72.4 µM
CAKI-1 renal
  GI50: 32.4 µM
  TGI: > 100 µM
COLO 205 colon
  GI50: 42.2 µM
  TGI: > 100 µM
DU-145 prostate
  GI50: 35.3 µM
  TGI: > 100 µM
EKVX NSCLC
  GI50: 22.9 µM
  TGI: > 100 µM
HCC-2998 colon
  GI50: 25.5 µM
  TGI: > 100 µM
HCT-116 colon
  GI50: 20.2 µM
  TGI: 48 µM
HCT-15 colon
  GI50: 34.3 µM
  TGI: > 100 µM
HL-60(TB) leukemia
  GI50: 56.7 nM
  TGI: 21.8 µM
HOP-62 NSCLC
  GI50: 19.1 µM
  TGI: 75.7 µM
HOP-92 NSCLC
  GI50: 37.5 µM
  TGI: > 100 µM
HS 578T breast
  GI50: 32.5 µM
  TGI: > 100 µM
HT29 colon
  GI50: 29.2 µM
  TGI: > 100 µM
IGROV1 ovarian
  GI50: 34.3 µM
  TGI: > 100 µM
K-562 leukemia
  GI50: 13.5 µM
  TGI: 27.2 µM
KM12 colon
  GI50: 39.6 µM
  TGI: > 100 µM
LOX IMVI melanoma
  GI50: 16.9 µM
  TGI: 38.6 µM
M14 melanoma
  GI50: 60.9 µM
  TGI: > 100 µM
MALME-3M melanoma
  GI50: 30.9 µM
  TGI: 96.6 µM
MCF7 breast
  GI50: 19.9 µM
  TGI: 92.4 µM
MDA-MB-231 breast
  GI50: 39.6 µM
  TGI: > 100 µM
MDA-MB-435 melanoma
  GI50: 31.2 µM
  TGI: > 100 µM
MDA-MB-468 breast
  GI50: 15.5 µM
  TGI: 45.5 µM
MOLT-4 leukemia
  GI50: 11.5 µM
  TGI: 23.7 µM
NCI-H226 lung
  GI50: 18.5 µM
  TGI: 58.8 µM
NCI-H23 lung
  GI50: 29.6 µM
  TGI: > 100 µM
NCI-H322M lung
  GI50: 36.2 µM
  TGI: > 100 µM
NCI-H460 NSCLC
  GI50: 29.7 µM
  TGI: > 100 µM
NCI-H522 lung
  GI50: 25.3 µM
  TGI: 86.6 µM
NCI/ADR-RES ovarian
  GI50: 22.3 µM
  TGI: 85.1 µM
OVCAR-3 ovarian
  GI50: 21.6 µM
  TGI: 59 µM
OVCAR-4 ovarian
  GI50: 33.3 µM
  TGI: > 100 µM
OVCAR-8 ovarian
  GI50: 36.4 µM
  TGI: > 100 µM
PC-3 prostate
  GI50: 42.9 µM
  TGI: > 100 µM
RPMI-8226 leukemia
  GI50: 66 nM
  TGI: 17.9 µM
RXF 393 renal
  GI50: 20.9 µM
  TGI: 59.4 µM
SF-268 CNS
  GI50: 26 µM
  TGI: > 100 µM
SF-295 CNS
  GI50: 18.1 µM
  TGI: 57.5 µM
SF-539 CNS
  GI50: 53.5 µM
  TGI: > 100 µM
SK-MEL-28 melanoma
  GI50: 31.1 µM
  TGI: > 100 µM
SK-MEL-5 melanoma
  GI50: 15.7 µM
  TGI: 29.6 µM
SK-OV-3 ovarian
  GI50: 33.9 µM
  TGI: > 100 µM
SN12C renal
  GI50: 30 µM
  TGI: > 100 µM
SNB-19 CNS
  GI50: 50.1 µM
  TGI: > 100 µM
SNB-75 CNS
  GI50: 34.8 µM
  TGI: > 100 µM
SR leukemia
  GI50: 24.6 µM
  TGI: 64.4 µM
SW-620 colon
  GI50: 57.6 µM
  TGI: > 100 µM
T-47D breast
  GI50: 29.8 µM
  TGI: > 100 µM
TK-10 renal
  GI50: 21.7 µM
  TGI: 60.1 µM
U251 glioblastoma
  GI50: 28 µM
  TGI: > 100 µM
UACC-257 melanoma
  GI50: 38.5 µM
  TGI: 91.3 µM
UACC-62 melanoma
  GI50: 34.2 µM
  TGI: > 100 µM
UO-31 renal
  GI50: 14.9 µM
  TGI: > 100 µM
